One experiment deals with T1, Human mTOR (FLAG-TOR) (Homo sapiens, UniProt P42345).
T1 construct: FLAG
Description: Human mTOR kinase assay with purified enzyme, DELFIA format. It counts as biochemical. The procedure, abridged:
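Purified FLAG-mTOR in HEPES pH 7.4 buffer with 10 mM MnCl2 was preincubated with inhibitor and reacted 2 h at room temperature with His6-S6K substrate, then stopped with EDTA/EGTA. Phospho-T389 S6K detected by DELFIA with Eu-labelled antibody (40 ng/mL) after plate capture; inhibition computed from signal.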

Experiment [1] has as its target T2, PI3K (Homo sapiens, UniProt P48736).
T2 construct: PI3 Kinase γ IC50; other: PI3 Kinase γ; other: PI3 Kinase γ isoform, fluorescence polarization
Description: Fluorescence polarization assay for PI3K. In kind it is biochemical. The settings on record: PI3 Kinase γ; read-out: PI3 Kinase γ IC50. The procedure, abridged: (§1)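 PI3K was preincubated with compound (final DMSO 1%), and the reaction was started with PIP2/ATP substrate and run 30–60 min. It was stopped with a detector mix giving 10 nM red probe and 70 nM GST-GRP.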

Experiment [2] deals with T3, PI3K (Homo sapiens, UniProt P42336).
T3 construct: PI3 Kinase α IC50; other: PI3 Kinase α; other: PI3 Kinase α isoform, fluorescence polarization
T3 sequence (P42336 whole entry, canonical isoform): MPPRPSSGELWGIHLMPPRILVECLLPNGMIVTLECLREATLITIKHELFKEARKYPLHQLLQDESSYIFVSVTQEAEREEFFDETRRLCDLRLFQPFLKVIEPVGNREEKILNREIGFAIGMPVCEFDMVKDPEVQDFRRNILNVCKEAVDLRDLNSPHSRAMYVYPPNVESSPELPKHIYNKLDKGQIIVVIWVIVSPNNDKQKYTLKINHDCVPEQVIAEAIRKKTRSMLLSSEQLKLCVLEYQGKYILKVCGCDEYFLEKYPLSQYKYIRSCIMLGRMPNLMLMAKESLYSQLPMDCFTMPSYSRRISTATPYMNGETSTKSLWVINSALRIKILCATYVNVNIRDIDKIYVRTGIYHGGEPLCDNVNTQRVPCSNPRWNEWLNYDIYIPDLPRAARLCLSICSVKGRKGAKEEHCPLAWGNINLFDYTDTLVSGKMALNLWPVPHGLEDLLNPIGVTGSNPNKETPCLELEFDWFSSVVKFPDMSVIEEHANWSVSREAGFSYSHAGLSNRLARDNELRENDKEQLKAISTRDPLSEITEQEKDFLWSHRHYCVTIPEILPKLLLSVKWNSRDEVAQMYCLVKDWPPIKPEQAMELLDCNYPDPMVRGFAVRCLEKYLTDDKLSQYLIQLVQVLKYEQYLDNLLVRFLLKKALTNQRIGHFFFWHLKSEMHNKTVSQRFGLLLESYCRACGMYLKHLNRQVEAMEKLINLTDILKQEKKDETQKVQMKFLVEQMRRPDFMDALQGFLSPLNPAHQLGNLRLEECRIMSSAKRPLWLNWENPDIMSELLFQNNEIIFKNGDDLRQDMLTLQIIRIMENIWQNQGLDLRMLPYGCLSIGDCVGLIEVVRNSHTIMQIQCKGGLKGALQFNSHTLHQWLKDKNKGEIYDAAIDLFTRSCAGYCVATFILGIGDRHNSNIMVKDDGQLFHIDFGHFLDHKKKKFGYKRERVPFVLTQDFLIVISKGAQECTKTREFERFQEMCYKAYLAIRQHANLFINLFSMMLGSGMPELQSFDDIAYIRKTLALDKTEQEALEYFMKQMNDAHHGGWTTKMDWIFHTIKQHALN
Description: Fluorescence polarization assay for PI3K. It counts as biochemical. The settings on record: PI3 Kinase α; read-out: PI3 Kinase α IC50. The procedure, abridged: as §1

The next experiment relates to prostate line LNCap. Description: In vitro cell culture growth assay (MTS), LNCap. It counts as cell-based. The note with it: Homo sapiens, LNCaP, 72 h, LNCap cells, three days after drug treatment. The procedure, abridged:
(§2)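 Inhibitors were added one day after plating, and viable cells were measured 3 days later by MTS conversion (absorbance 490 nm).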

Another experiment has as its system breast line MDA468. Description: In vitro cell culture growth assay (MTS), MDA468. In kind it is cell-based. The note with it: Homo sapiens, 72 h, MDA468 cells, three days after drug treatment. The gist of the method:
as §2

pIC50: −log10 of the molar value. Where only a bound is given, the exact number is not on record here.

As usually defined, the pIC50 is the negative decadic logarithm of the IC50, by convention in mol/L.

T2 sequence (P48736 whole entry, canonical isoform): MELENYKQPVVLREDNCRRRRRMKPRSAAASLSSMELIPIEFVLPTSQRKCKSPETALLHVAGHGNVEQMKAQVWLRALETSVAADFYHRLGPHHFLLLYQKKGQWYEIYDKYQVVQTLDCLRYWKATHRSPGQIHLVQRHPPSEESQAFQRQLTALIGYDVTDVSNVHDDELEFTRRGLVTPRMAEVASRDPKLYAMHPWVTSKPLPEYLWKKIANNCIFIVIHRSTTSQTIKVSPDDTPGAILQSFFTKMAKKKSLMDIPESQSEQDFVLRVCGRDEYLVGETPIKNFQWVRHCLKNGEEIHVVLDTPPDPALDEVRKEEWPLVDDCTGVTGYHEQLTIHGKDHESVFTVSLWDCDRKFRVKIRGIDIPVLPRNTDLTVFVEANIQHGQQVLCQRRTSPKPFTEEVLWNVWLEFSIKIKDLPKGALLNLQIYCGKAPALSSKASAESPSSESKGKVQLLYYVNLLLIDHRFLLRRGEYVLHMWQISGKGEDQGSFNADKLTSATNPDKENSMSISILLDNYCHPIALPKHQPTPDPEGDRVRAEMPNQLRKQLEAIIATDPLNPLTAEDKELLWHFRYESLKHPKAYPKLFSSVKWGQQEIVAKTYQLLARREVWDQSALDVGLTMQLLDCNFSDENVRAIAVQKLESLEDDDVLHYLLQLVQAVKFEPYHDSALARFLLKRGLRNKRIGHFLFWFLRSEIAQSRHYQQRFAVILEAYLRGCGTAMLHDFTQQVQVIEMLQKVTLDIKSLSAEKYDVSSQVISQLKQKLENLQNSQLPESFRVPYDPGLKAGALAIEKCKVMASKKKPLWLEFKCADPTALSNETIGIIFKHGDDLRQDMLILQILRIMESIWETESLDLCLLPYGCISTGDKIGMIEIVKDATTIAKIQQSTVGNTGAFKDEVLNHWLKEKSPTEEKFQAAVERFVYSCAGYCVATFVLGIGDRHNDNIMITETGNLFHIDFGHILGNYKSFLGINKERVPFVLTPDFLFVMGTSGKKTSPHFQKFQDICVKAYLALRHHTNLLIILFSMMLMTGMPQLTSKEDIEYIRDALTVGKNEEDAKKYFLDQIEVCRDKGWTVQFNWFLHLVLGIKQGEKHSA

With `CCn1ncc2c(N3CC4CCC(C3)O4)nc(-c3ccc(NC(=O)NC)cc3)nc21` [Example 40, 1-{4-[1-ethyl-4-(8-oxa-3-azabicyclo[3.2.1]oct-3-yl)-1H-pyrazolo[3,4-d]pyrimidin-6-yl]phenyl}-3-methylurea], the pIC50 at Human mTOR (FLAG-TOR) was 9.24; at PI3K [1], less than 5.00; on PI3K [2] it was 6.57; in the experiment with prostate line LNCap it was 7.15; in the experiment on breast line MDA468, 6.52.
The like results for `CCNC(=O)Nc1ccc(-c2nc(N3CC4CCC(C3)O4)c3cnn(CC)c3n2)cc1` [Example 41, 1-ethyl-3-{4-[1-ethyl-4-(8-oxa-3-azabicyclo[3.2.1]oct-3-yl)-1H-pyrazolo[3,4-d]pyrimidin-6-yl]phenyl}urea] were, in that order, 9.33, 4.92, 5.90, 7.80 and 7.10.
Take `CCn1ncc2c(N3CC4CCC(C3)O4)nc(-c3ccc(NC(=O)NCCF)cc3)nc21` [Example 42, 1-{4-[1-ethyl-4-(8-oxa-3-azabicyclo[3.2.1]oct-3-yl)-1H-pyrazolo[3,4-d]pyrimidin-6-yl]phenyl}-3-(2-fluoroethyl)urea]: the pIC50 was 9.51 against Human mTOR (FLAG-TOR); less than 5.00 on PI3K [1]; 6.01 on PI3K [2]; 7.51 in the experiment with prostate line LNCap; 6.92 in the experiment on breast line MDA468.
Take `CCn1ncc2c(N3CC4CCC(C3)O4)nc(-c3ccc(NC(=O)NC4CC4)cc3)nc21` [Example 43, 1-cyclopropyl-3-{4-[1-ethyl-4-(8-oxa-3-azabicyclo[3.2.1]oct-3-yl)-1H-pyrazolo[3,4-d]pyrimidin-6-yl]phenyl}urea]: the pIC50 is 9.40 against Human mTOR (FLAG-TOR); less than 5.00 on PI3K [1]; 5.75 at PI3K [2]; 7.28 in the experiment with prostate line LNCap; 6.60 in the experiment with breast line MDA468.
As to `CCn1ncc2c(N3CC4CCC(C3)O4)nc(-c3ccc(NC(=O)NCCO)cc3)nc21` [Example 44, 1-{4-[1-ethyl-4-(8-oxa-3-azabicyclo[3.2.1]oct-3-yl)-1H-pyrazolo[3,4-d]pyrimidin-6-yl]phenyl}-3-(2-hydroxyethyl)urea], the pIC50 against Human mTOR (FLAG-TOR) was 9.47; at PI3K [1] it was 4.92; at PI3K [2], 6.38; with prostate line LNCap it was 6.66; in the experiment on breast line MDA468 it was 6.43.
As for `CCn1ncc2c(N3CC4CCC(C3)O4)nc(-c3ccc(NC(=O)OCCO)cc3)nc21` [Example 45, 2-hydroxyethyl {4-[1-ethyl-4-(8-oxa-3-azabicyclo[3.2.1]oct-3-yl)-1H-pyrazolo[3,4-d]pyrimidin-6-yl]phenyl}carbamate], the pIC50 on Human mTOR (FLAG-TOR) is 8.92; at PI3K [1], less than 5.00; at PI3K [2], 5.79; with prostate line LNCap it was 7.00; in the experiment on breast line MDA468, 6.57.
As to `CCn1ncc2c(N3CC4CCC(C3)O4)nc(-c3ccc(NC(=O)Nc4ccccc4)cc3)nc21` [Example 46, 1-{4-[1-ethyl-4-(8-oxa-3-azabicyclo[3.2.1]oct-3-yl)-1H-pyrazolo[3,4-d]pyrimidin-6-yl]phenyl}-3-phenylurea], the pIC50 against Human mTOR (FLAG-TOR) is 9.52; on PI3K [1], 5.79; at PI3K [2], 7.17; in the experiment with prostate line LNCap, 9.10; in the experiment on breast line MDA468 it was 7.92.
In the case of `CCn1ncc2c(N3CC4CCC(C3)O4)nc(-c3ccc(NC(=O)Nc4cccnc4)cc3)nc21` [Example 47, 1-{4-[1-ethyl-4-(8-oxa-3-azabicyclo[3.2.1]oct-3-yl)-1H-pyrazolo[3,4-d]pyrimidin-6-yl]phenyl}-3-pyridin-3-ylurea], the pIC50 at Human mTOR (FLAG-TOR) is 9.96; at PI3K [1], 5.57; at PI3K [2], 6.80; in the experiment with prostate line LNCap, greater than 9.10; with breast line MDA468 it was 8.92.
For `CCn1ncc2c(N3CC4CCC(C3)O4)nc(-c3ccc(NC(=O)Nc4ccncc4)cc3)nc21` [Example 48, 1-{4-[1-ethyl-4-(8-oxa-3-azabicyclo[3.2.1]oct-3-yl)-1H-pyrazolo[3,4-d]pyrimidin-6-yl]phenyl}-3-pyridin-4-ylurea], the pIC50 was 9.80 against Human mTOR (FLAG-TOR); 5.95 at PI3K [1]; 6.87 at PI3K [2]; greater than 9.10 in the experiment on prostate line LNCap; greater than 9.10 in the experiment on breast line MDA468.
For `CCn1ncc2c(N3CC4CCC(C3)O4)nc(-c3ccc(NC(=O)NCCCNC)cc3)nc21` [Example 49, 1-{4-[1-ethyl-4-(8-oxa-3-azabicyclo[3.2.1]oct-3-yl)-1H-pyrazolo[3,4-d]pyrimidin-6-yl]phenyl}-3-[3-(methylamino)propyl]urea], the pIC50 on Human mTOR (FLAG-TOR) was 7.85; at PI3K [1] it was less than 5.00; on PI3K [2] it was 6.01; in the experiment on prostate line LNCap, 5.74; in the experiment with breast line MDA468, 5.52.
With `CNC(=O)Nc1ccc(-c2nc(N3CC4CCC(C3)O4)c3cnn(C)c3n2)cc1` [Example 50, 1-methyl-3-{4-[1-methyl-4-(8-oxa-3-azabicyclo[3.2.1]oct-3-yl)-1H-pyrazolo[3,4-d]pyrimidin-6-yl]phenyl}urea], the pIC50 was 8.70 against Human mTOR (FLAG-TOR); 5.20 on PI3K [1]; 6.61 at PI3K [2]; 6.77 in the experiment with prostate line LNCap; 6.15 with breast line MDA468.
As to `CCNC(=O)Nc1ccc(-c2nc(N3CC4CCC(C3)O4)c3cnn(C)c3n2)cc1` [Example 51, 1-ethyl-3-{4-[1-methyl-4-(8-oxa-3-azabicyclo[3.2.1]oct-3-yl)-1H-pyrazolo[3,4-d]pyrimidin-6-yl]phenyl}urea], the pIC50 against Human mTOR (FLAG-TOR) was 8.80; on PI3K [1], 5.10; on PI3K [2], 6.10; in the experiment with prostate line LNCap, 7.34; in the experiment on breast line MDA468 it was 6.41.
As for `Cn1ncc2c(N3CC4CCC(C3)O4)nc(-c3ccc(NC(=O)NCCF)cc3)nc21` [Example 52, 1-(2-fluoroethyl)-3-{4-[1-methyl-4-(8-oxa-3-azabicyclo[3.2.1]oct-3-yl)-1H-pyrazolo[3,4-d]pyrimidin-6-yl]phenyl}urea], the pIC50 on Human mTOR (FLAG-TOR) was 9.00; on PI3K [1], 5.02; on PI3K [2], 6.06; in the experiment with prostate line LNCap, 7.00; with breast line MDA468 it was 6.30.
For `Cn1ncc2c(N3CC4CCC(C3)O4)nc(-c3ccc(NC(=O)NC4CC4)cc3)nc21` [Example 53, 1-cyclopropyl-3-{4-[1-methyl-4-(8-oxa-3-azabicyclo[3.2.1]oct-3-yl)-1H-pyrazolo[3,4-d]pyrimidin-6-yl]phenyl}urea], the pIC50 is 8.85 at Human mTOR (FLAG-TOR); 5.05 at PI3K [1]; 6.07 on PI3K [2]; 7.14 with prostate line LNCap; 6.10 with breast line MDA468.
For the compound `Cn1ncc2c(N3CC4CCC(C3)O4)nc(-c3ccc(NC(=O)NCCO)cc3)nc21` [Example 54, 1-(2-hydroxyethyl)-3-{4-[1-methyl-4-(8-oxa-3-azabicyclo[3.2.1]oct-3-yl)-1H-pyrazolo[3,4-d]pyrimidin-6-yl]phenyl}urea], the pIC50 on Human mTOR (FLAG-TOR) was 8.96; on PI3K [1], 5.24; on PI3K [2] it was 6.36; in the experiment with prostate line LNCap, 6.39; with breast line MDA468 it was 5.92.
In the case of `Cn1ncc2c(N3CC4CCC(C3)O4)nc(-c3ccc(NC(=O)Nc4ccccc4)cc3)nc21` [Example 55, 1-{4-[1-methyl-4-(8-oxa-3-azabicyclo[3.2.1]oct-3-yl)-1H-pyrazolo[3,4-d]pyrimidin-6-yl]phenyl}-3-phenylurea], the negative logarithm of the IC50 (pIC50) on Human mTOR (FLAG-TOR) is 9.18; at PI3K [1], 6.19; on PI3K [2], 7.13; with prostate line LNCap, 9.10; in the experiment with breast line MDA468 it was 7.49.
For `Cn1ncc2c(N3CC4CCC(C3)O4)nc(-c3ccc(NC(=O)Nc4cccnc4)cc3)nc21` [Example 56, 1-{4-[1-methyl-4-(8-oxa-3-azabicyclo[3.2.1]oct-3-yl)-1H-pyrazolo[3,4-d]pyrimidin-6-yl]phenyl}-3-pyridin-3-ylurea], the pIC50 is 9.57 against Human mTOR (FLAG-TOR); 6.24 at PI3K [1]; 6.64 on PI3K [2]; 9.15 with prostate line LNCap; 8.30 with breast line MDA468.
As to `Cn1ncc2c(N3CC4CCC(C3)O4)nc(-c3ccc(NC(=O)Nc4ccncc4)cc3)nc21` [Example 57, 1-{4-[1-methyl-4-(8-oxa-3-azabicyclo[3.2.1]oct-3-yl)-1H-pyrazolo[3,4-d]pyrimidin-6-yl]phenyl}-3-pyridin-4-ylurea], the pIC50 on Human mTOR (FLAG-TOR) is 9.74; on PI3K [1], 6.11; at PI3K [2] it was 6.79; in the experiment with prostate line LNCap, 9.10; in the experiment with breast line MDA468, 8.05.
As to `CN(C)CCNC(=O)Nc1ccc(-c2nc(N3CC4CCC(C3)O4)c3cnn(C)c3n2)cc1` [Example 58, 1-[2-(dimethylamino)ethyl]-3-{4-[1-methyl-4-(8-oxa-3-azabicyclo[3.2.1]oct-3-yl)-1H-pyrazolo[3,4-d]pyrimidin-6-yl]phenyl}urea], the pIC50 on Human mTOR (FLAG-TOR) is 7.00; at PI3K [1], 5.95; on PI3K [2] it was 6.51; with prostate line LNCap, 6.15; in the experiment on breast line MDA468, 5.55.
